Data on eleven compounds can be found in ChEMBL document CHEMBL2331094 (Bioorg Med Chem Lett, 2013).

Holding throughout (assay type): cell-based
Assay [1] deals with T1, Lysophosphatidic acid receptor 4 (Homo sapiens, UniProt Q99677). In words: Agonist activity at human LPA4 receptor transfected in HEK293 cells after 1 hr by TGFalpha shedding assay in presence of Ki16425.
The target in assay [2] is T2, Lysophosphatidic acid receptor 1 (Homo sapiens, UniProt Q92633). Briefly: Agonist activity at human LPA1 receptor transfected in HEK293 cells after 1 hr by TGFalpha shedding assay.
T2 sequence (Q92633 whole entry): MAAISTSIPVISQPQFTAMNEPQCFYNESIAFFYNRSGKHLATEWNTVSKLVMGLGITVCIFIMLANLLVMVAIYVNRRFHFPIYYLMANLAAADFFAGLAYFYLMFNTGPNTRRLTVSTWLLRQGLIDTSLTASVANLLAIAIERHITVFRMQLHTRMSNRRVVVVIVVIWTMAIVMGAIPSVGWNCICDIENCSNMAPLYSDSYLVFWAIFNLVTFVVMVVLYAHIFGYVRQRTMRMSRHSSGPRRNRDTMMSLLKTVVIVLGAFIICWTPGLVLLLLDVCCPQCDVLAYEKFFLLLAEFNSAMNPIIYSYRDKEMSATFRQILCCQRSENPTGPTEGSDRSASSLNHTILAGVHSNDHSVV
In assay [3] the target is T3, Lysophosphatidic acid receptor 2 (Homo sapiens, UniProt Q9HBW0). In words: Intrinsic activity at human LPA2 receptor transfected in HEK293 cells after 1 hr by TGFalpha shedding assay relative to LPA.
T3 sequence (Q9HBW0 whole entry): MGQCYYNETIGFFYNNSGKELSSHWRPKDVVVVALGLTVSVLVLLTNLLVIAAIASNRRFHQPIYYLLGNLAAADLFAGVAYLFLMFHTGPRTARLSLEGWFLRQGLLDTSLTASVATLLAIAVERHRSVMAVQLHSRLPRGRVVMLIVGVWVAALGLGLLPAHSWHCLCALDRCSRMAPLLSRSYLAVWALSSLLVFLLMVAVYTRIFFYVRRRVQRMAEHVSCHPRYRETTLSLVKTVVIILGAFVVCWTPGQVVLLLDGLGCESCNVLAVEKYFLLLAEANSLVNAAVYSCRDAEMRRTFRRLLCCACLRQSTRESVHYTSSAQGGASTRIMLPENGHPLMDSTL
In assay [4] the target is T4, Lysophosphatidic acid receptor 5 (Homo sapiens, UniProt Q9H1C0). Briefly: Agonist activity at human LPA5 receptor transfected in HEK293 cells after 1 hr by TGFalpha shedding assay in presence of Ki16425.
T4 sequence (Q9H1C0 whole entry): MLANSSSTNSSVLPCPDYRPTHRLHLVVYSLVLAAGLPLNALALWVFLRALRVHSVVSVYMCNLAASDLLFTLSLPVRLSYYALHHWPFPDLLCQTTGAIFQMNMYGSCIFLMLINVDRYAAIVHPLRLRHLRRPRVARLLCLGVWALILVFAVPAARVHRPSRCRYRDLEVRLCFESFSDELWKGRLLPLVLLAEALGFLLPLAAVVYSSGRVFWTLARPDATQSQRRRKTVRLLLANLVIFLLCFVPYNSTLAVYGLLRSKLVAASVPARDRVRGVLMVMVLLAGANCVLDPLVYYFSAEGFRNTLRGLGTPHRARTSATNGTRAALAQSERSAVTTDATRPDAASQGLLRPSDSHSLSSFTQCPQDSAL
In assay [5] the target is T5, Lysophosphatidic acid receptor 3 (Homo sapiens) (UniProt Q9UBY5).
T5 sequence (whole entry): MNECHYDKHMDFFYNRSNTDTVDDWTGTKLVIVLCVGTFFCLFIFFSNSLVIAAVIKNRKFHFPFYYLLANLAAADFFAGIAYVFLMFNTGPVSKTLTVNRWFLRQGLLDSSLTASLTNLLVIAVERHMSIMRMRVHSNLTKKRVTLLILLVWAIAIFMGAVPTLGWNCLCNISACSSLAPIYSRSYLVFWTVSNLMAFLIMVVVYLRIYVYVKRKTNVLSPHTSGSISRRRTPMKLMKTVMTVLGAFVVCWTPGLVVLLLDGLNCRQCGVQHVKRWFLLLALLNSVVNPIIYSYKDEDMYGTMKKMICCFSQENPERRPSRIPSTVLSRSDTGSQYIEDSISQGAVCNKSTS
In words: Intrinsic activity at human LPA3 receptor transfected in HEK293 cells after 1 hr by TGFalpha shedding assay relative to LPA.

Assay [6] deals with T2, Lysophosphatidic acid receptor 1. Briefly: Intrinsic activity at human LPA1 receptor transfected in HEK293 cells after 1 hr by TGFalpha shedding assay relative to LPA.
Assay [7] addresses T6, Lysophosphatidic acid receptor 6 (Homo sapiens, UniProt P43657).
T6 sequence (P43657 whole entry): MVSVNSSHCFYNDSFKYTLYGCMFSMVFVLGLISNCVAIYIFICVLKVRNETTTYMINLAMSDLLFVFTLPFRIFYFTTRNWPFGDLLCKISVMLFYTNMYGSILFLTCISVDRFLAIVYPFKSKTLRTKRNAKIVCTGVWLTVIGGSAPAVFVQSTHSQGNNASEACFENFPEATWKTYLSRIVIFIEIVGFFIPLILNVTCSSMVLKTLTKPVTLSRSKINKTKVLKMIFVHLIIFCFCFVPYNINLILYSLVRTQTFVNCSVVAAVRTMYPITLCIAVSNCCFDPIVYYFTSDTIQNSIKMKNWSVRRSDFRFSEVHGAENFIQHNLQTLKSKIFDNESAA
In words: Agonist activity at human LPA6 receptor transfected in HEK293 cells after 1 hr by TGFalpha shedding assay in presence of Ki16425.

The target of assay [8] is T1, Lysophosphatidic acid receptor 4. In words: Intrinsic activity at human LPA4 receptor transfected in HEK293 cells after 1 hr by TGFalpha shedding assay in presence of Ki16425 relative to LPA.
Assay [9] has as its target T4, Lysophosphatidic acid receptor 5. Briefly: Intrinsic activity at human LPA5 receptor transfected in HEK293 cells after 1 hr by TGFalpha shedding assay in presence of Ki16425 relative to LPA.
The target in assay [10] is T7, Lysophosphatidic acid receptor 6 (Homo sapiens) (UniProt P43657).
T7 sequence (whole entry): T6 sequence (P43657 whole entry)
Briefly: Intrinsic activity at human LPA6 receptor transfected in HEK293 cells after 1 hr by TGFalpha shedding assay in presence of Ki16425 relative to LPA.

The target in assay [11] is T8, Lysophosphatidic acid receptor 3 (Homo sapiens, UniProt Q9UBY5).
T8 sequence (Q9UBY5 whole entry): T5 sequence (whole entry)
Briefly: Agonist activity at human LPA3 receptor transfected in HEK293 cells after 1 hr by TGFalpha shedding assay.

The target in assay [12] is T3, Lysophosphatidic acid receptor 2. In words: Agonist activity at human LPA2 receptor transfected in HEK293 cells after 1 hr by TGFalpha shedding assay.

The structures appear in SMILES notation.

T1 sequence (Q99677 whole entry): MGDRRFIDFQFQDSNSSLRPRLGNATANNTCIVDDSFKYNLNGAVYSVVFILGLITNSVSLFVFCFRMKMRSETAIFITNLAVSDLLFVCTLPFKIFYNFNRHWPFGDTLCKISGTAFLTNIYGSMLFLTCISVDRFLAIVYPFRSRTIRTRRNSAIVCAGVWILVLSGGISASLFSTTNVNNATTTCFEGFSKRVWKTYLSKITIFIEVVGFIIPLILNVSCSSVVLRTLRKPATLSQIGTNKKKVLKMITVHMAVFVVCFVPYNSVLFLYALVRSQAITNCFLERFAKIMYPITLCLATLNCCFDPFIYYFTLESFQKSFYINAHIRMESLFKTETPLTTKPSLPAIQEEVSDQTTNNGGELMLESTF

The term EC50 denotes the concentration at which the effect is half-maximal. On to `CCCCCCCCCCCCCCCCCCOCC(COP(O)(O)=S)OC` (racemic), for which the EC50 in [1] turned out to be 3.8 nM; in [2], 8.4 nM; in [4], 0.83 nM; in [7], 39 nM; in [11], 0.23 nM; in [12], 100 nM. Further, the Intrinsic activity in [3] amounted to 0.26; in assay [5], 570; in assay [6], 1.63; in [8], 2.2; in assay [9], 114; in [10] it was 27.
Regarding `CCCCCCCCCCCCCCCCCC(=O)OCC(COP(=O)(O)S)OC` (racemic), the EC50 in [1] turned out to be 3.3 nM; in assay [2], 16.5 nM; in assay [4], 6.3 nM; in assay [7] it was 86 nM; in assay [11] it was 0.28 nM; in assay [12], 161 nM. Moreover, the Intrinsic activity in [3] is 0.188; in [5], 410; in assay [6], 0.79; in assay [8], 2.6; in [9] it was 11.1; in assay [10], 13.3.
With `CCCCCCCCCCCCCCCCCCOC[C@@H](COP(O)(O)=S)OC`, the EC50 in [1] is 3.5 nM; in [2] it was 10.1 nM; in [4], 3.4 nM; in assay [7], 90 nM; in [11], 0.37 nM; in assay [12], 110 nM. For the same compound, the Intrinsic activity in assay [3] was found to be 0.34; in assay [5], 390; in [6], 1.2; in [8], 2.7; in assay [9] it was 23; in assay [10], 11.
As to `CCCCCCCCCCCCCCCCCOC(COC)COP(O)(O)=S` (racemic), the EC50 stood at 4.5 nM in assay [1]; 11.1 nM in assay [2]; 3 nM in [4]; 78 nM in assay [7]; 0.39 nM in assay [11]; 117 nM in assay [12]. For the same compound, the Intrinsic activity turned out to be 0.3 in assay [3]; 340 in [5]; 1.29 in assay [6]; 2 in [8]; 26 in [9]; 15.1 in [10].
In the case of `CCCCCCCCCCCCCCCCOC(COC)COP(O)(O)=S` (configuration not stated), the EC50 amounted to 3.8 nM in assay [1]; 26 nM in assay [2]; 0.26 nM in assay [4]; 66 nM in assay [7]; 0.36 nM in assay [11]; 116 nM in [12]. Further, the Intrinsic activity in assay [3] came to 0.046; in [5], 300; in assay [6], 0.38; in assay [8], 2.1; in assay [9] it was 300; in assay [10], 10.9.
Consider `CCCCCCCC/C=C\CCCCCCCC(=O)OC[C@@H](O)COP(=O)(O)O` [LYSOPHOSPHATIDIC ACID], for which, in [2], the EC50 was 18 nM. In addition, the Intrinsic activity in [3], in assay [5], in assay [6], in assay [8], in assay [9] and in assay [10] was 1 each time.
Consider `CCCCCCCCCCCCCCCCCC(=O)OC(COC)COP(O)(O)=S` (racemic), for which the EC50 in assay [1] came to 2.4 nM; in assay [2] it was 12.2 nM; in assay [4], 1.81 nM; in [7], 76 nM; in assay [11], 0.21 nM; in [12] it was 146 nM. Also, the Intrinsic activity came to 0.165 in assay [3]; 600 in [5]; 1.15 in assay [6]; 3.9 in [8]; 41 in assay [9]; 14.3 in assay [10].
For `CCCCCCCCCCCCCCCCCC(=O)OC[C@@H](COP(O)(O)=S)OC`, the concentration for a half-maximal effect (EC50) in assay [1] was 2.7 nM; in assay [2] it was 14.7 nM; in [4], 5.1 nM; in assay [7] it was 79 nM; in [11], 0.27 nM; in assay [12], 112 nM. The Intrinsic activity in assay [3] is 0.25; in [5], 500; in [6], 0.94; in assay [8] it was 3.1; in assay [9], 14.8; in assay [10] it was 13.1.
On to `CCCCCCCCCCCCCCCC(=O)OC[C@@H](O)COP(=O)(O)O`, for which the EC50 came out at 84 nM in assay [1]; 71 nM in assay [2]; 68 nM in assay [4]; 930 nM in assay [7]; 580 nM in assay [11]; 290 nM in assay [12]. The Intrinsic activity in [3] turned out to be 0.092; in assay [5], 0.102; in assay [6], 0.24; in assay [8], 0.14; in [9], 1.04; in assay [10], 0.25.
On to `CCCCCCCCCCCCCCCCCC(=O)OC[C@H](COP(O)(O)=S)OC`, for which the EC50 in assay [1] came out at 4.9 nM; in assay [2], 24 nM; in assay [4] it was 8.2 nM; in [7], 58 nM; in assay [11] it was 0.44 nM; in assay [12] it was 149 nM. The Intrinsic activity in assay [3] amounted to 0.178; in assay [5], 260; in assay [6], 0.61; in assay [8], 1.6; in [9] it was 8.4; in assay [10], 19.3.
Regarding `CCCCCCCCCCCCCCCCCCOC[C@H](COP(O)(O)=S)OC`, the EC50 was found to be 4.9 nM in assay [1]; 31 nM in assay [2]; 6.1 nM in assay [4]; 105 nM in assay [7]; 1.08 nM in assay [11]; 350 nM in [12]. In addition, the Intrinsic activity came out at 0.088 in [3]; 140 in [5]; 0.57 in assay [6]; 2.1 in [8]; 16 in assay [9]; 10.9 in [10].
